Results from ChEMBL document CHEMBL3632576, “Tacrine-Trolox Hybrids: A Novel Class of Centrally Active, Nonhepatotoxic Multi-Target-Directed Ligands Exerting Anticholinesterase and Antioxidant Activities with Low In Vivo Toxicity” (J Med Chem, 2015).
Active and inactive are the calls of the source. The calls are words filed in the database; no cut-off is given here.

Key:
Acetylcholinesterase [1] = target: T1, Acetylcholinesterase (Homo sapiens, UniProt P22303)
Description: Inhibition of human recombinant AChE using acetylthiocholine as substrate preincubated for 5 mins followed by substrate addition measured every 2 mins by Ellman's method

Cholinesterase = Cholinesterase (Homo sapiens, UniProt P06276)
Description: Inhibition of human plasmatic BChE using butyrylthiocholine as substrate preincubated for 5 mins followed by substrate addition measured every 2 mins by Ellman's method

Liver microsome [2] = test: Drug metabolism in human liver microsomes assessed as decrease in 8-(6-chloro-1,2,3,4-tetrahydroacridin-9-ylamino)octanoic acid AUC after 1 hr by extracted ion chromatogram analysis; assay type: ADME
[3] = Metabolic stability in human liver microsomes assessed as compound remaining at 50 ug/ml after 1 hr by LC-MS/MS analysis; assay type: ADME; details: read-out: Stability
Acetylcholinesterase [4] = target: T1, Acetylcholinesterase; details: 100 to 562 nM
[5] = Metabolic stability in human liver microsomes assessed as compound remaining at 1 ug/ml after 1 hr by LC-MS/MS analysis; assay type: ADME; details: read-out: Stability
HepG2 [6] = test: Hepatotoxicity in human HepG2 cells assessed as cell viability at 0.5 uM after 24 hrs by MTT assay; assay type: toxicity, cell-based; details: hepg2, 24 h
[7] = Metabolic stability in human liver microsomes assessed as compound remaining at 20 ug/ml after 1 hr by LC-MS/MS analysis; assay type: ADME; details: read-out: Stability
Liver microsome [8] = test: Retention time of the compound in human liver microsomes by LC-MS/MS analysis; assay type: ADME
Acetylcholinesterase [9] = target: T1, Acetylcholinesterase; test: Competitive inhibition of human recombinant AChE using acetylthiocholine as substrate preincubated for 5 mins followed by substrate addition measured every 2 mins by Lineweaver-Burk plot analysis
[10] = Permeability of the compound at 50 to 100 uM after 18 hrs by PAMPA; assay type: physicochemical; details: read-out: permeability
[11] = Acute toxicity in im dosed albino Wistar rat assessed as mortality measured within 48 hrs; assay type: organism-based; details: in vivo
in vitro = details: human, HepG2 cells
Description: Hepatotoxicity in human HepG2 cells assessed as cell viability after 24 hrs by MTT assay

HepG2 [12] = test: Hepatotoxicity in human HepG2 cells assessed as cell viability at 2 uM after 24 hrs by MTT assay; assay type: toxicity, cell-based; details: hepg2, 24 h
HepG2 [13] = test: Hepatotoxicity in human HepG2 cells assessed as cell viability at 512 uM after 24 hrs by MTT assay; assay type: toxicity, cell-based; details: hepg2, 24 h

Sequence of Cholinesterase (P06276 whole entry): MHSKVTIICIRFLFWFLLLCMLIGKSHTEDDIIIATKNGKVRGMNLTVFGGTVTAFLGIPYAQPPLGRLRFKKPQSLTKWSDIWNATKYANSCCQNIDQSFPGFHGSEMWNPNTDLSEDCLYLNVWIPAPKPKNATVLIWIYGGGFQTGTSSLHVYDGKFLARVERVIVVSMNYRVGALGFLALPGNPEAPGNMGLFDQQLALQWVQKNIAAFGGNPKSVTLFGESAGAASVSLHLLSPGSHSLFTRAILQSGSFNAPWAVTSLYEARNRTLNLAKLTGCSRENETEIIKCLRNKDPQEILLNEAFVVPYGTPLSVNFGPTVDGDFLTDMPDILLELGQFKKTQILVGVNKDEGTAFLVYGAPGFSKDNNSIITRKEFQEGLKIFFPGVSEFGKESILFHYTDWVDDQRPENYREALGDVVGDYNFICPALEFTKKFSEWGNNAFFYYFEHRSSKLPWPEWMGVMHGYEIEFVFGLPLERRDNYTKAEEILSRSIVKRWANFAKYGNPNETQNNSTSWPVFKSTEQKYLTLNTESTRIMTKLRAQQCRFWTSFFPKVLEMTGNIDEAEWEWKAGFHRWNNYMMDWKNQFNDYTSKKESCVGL
T1 sequence (P22303 whole entry): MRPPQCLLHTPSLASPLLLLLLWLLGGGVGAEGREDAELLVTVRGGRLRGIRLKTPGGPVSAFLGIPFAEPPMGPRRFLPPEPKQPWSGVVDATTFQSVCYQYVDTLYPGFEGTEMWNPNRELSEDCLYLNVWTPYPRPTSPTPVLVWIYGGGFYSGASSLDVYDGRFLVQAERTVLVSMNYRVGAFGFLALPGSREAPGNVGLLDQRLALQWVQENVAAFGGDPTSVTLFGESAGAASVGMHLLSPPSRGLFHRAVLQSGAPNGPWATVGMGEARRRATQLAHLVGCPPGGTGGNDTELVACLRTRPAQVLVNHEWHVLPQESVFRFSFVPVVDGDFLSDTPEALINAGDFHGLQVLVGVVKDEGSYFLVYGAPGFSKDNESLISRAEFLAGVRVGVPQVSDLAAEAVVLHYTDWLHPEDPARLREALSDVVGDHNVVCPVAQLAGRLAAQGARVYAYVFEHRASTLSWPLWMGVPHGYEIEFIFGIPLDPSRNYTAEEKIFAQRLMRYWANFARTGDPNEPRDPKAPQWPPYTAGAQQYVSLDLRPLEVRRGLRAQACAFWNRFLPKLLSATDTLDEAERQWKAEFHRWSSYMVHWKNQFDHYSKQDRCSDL

Structure (SMILES) | EC50 [µM] | IC50 (Acetylcholinesterase [1]) [µM] | IC50 (Cholinesterase) [µM] | other results
Cc1c(C)c2c(c(C)c1O)CCC(C)(C(=O)NCCCCNc1c3c(nc4ccccc14)CCCC3)O2 (stereo not given) | > 100 | 0.95 | 0.08 | 
Cc1c(C)c2c(c(C)c1O)CCC(C)(C(=O)NCCNc1c3c(nc4cc(Cl)ccc14)CCCC3)O2 (stereo not given) | 67.8 | 0.21 | 0.02 | 
Cc1c(C)c2c(c(C)c1O)CCC(C)(C(=O)NCCCCCCCCNc1c3c(nc4cc(Cl)ccc14)CCCC3)O2 (stereo not given) | 44.1 | 0.08 | 0.54 | Drug metabolism (Liver microsome [2]): 3.1%; remaining at 1 h, 50 ug/ml [3]: 85.4%; inhibition (Acetylcholinesterase [4]): Active; remaining at 1 h, 1 ug/ml [5]: 58.2%; Activity (HepG2 [6]): Non-toxic; remaining at 1 h, 20 ug/ml [7]: 85.5%; Retention_time (Liver microsome [8]): 7.52 min; Ki (Acetylcholinesterase [9]): 0.0495 µM; Papp at 18 h, 100 µM [10]: 50 nm/s; LD50 at 48 h [11]: > 500 mg/kg
COc1ccc2nc3c(c(NCCCCNC(=O)C4(C)CCc5c(C)c(O)c(C)c(C)c5O4)c2c1)CCCC3 (stereo not given) | > 100 | 7.21 | 0.29 | 
Cc1c(C)c2c(c(C)c1O)CCC(C)(C(=O)NCCCCCCNc1c3c(nc4ccccc14)CCCC3)O2 (stereo not given) | 61.8 | 0.36 | 0.19 | IC50 at 24 h (in vitro): 2 µM
COc1ccc2nc3c(c(NCCCNC(=O)C4(C)CCc5c(C)c(O)c(C)c(C)c5O4)c2c1)CCCC3 (stereo not given) | > 100 | 1.54 | 0.62 | Activity (HepG2 [12]): Non-toxic
Cc1c(C)c2c(c(C)c1O)CCC(C)(C(=O)NCCCCCCCNc1c3c(nc4ccccc14)CCCC3)O2 (stereo not given) | > 100 | 0.69 | 0.13 | 
COc1ccc2nc3c(c(NCCCCCCNC(=O)C4(C)CCc5c(C)c(O)c(C)c(C)c5O4)c2c1)CCCC3 (stereo not given) | 58.8 | 6.61 | 0.69 | 
Cc1c(C)c2c(c(C)c1O)CCC(C)(C(=O)NCCCNc1c3c(nc4ccccc14)CCCC3)O2 (stereo not given) | 51.3 | 0.26 | 0.08 | IC50 at 24 h (in vitro): 13.2 µM
COc1ccc2nc3c(c(N)c2c1)CCCC3 | > 100 |  |  | IC50 at 24 h (in vitro): 11.5 µM
Cc1c(C)c2c(c(C)c1O)CCC(C)(C(=O)NCCCCCCCCNc1c3c(nc4ccccc14)CCCC3)O2 (stereo not given) | 66.5 | 0.69 | 0.16 | 
Nc1c2c(nc3cc(Cl)ccc13)CCCC2 | > 100 |  |  | IC50 at 24 h (in vitro): 7.13 µM; LD50 at 48 h [11]: 7.5 mg/kg
Cc1c(C)c2c(c(C)c1O)CCC(C)(C(=O)NCCCNc1c3c(nc4cc(Cl)ccc14)CCCC3)O2 (stereo not given) | 48.8 | 0.08 | 0.77 | 
Cc1c(C)c2c(c(C)c1O)CCC(C)(C(=O)NCCCCNc1c3c(nc4cc(Cl)ccc14)CCCC3)O2 (stereo not given) | 50.8 | 0.15 | 0.09 | 
COc1ccc2nc3c(c(NCCCCCCCNC(=O)C4(C)CCc5c(C)c(O)c(C)c(C)c5O4)c2c1)CCCC3 (stereo not given) | 59 | 6.72 | 0.7 | 
Cc1c(C)c2c(c(C)c1O)CCC(C)(C(=O)NCCCCCNc1c3c(nc4cc(Cl)ccc14)CCCC3)O2 (stereo not given) | 49.8 | 0.12 | 0.13 | 
O=C(O)CCCCCCCNc1c2c(nc3cc(Cl)ccc13)CCCC2 |  |  |  | Retention_time (Liver microsome [8]): 6.52 min
Cc1c(C)c2c(c(C)c1O)CCC(C)(C(=O)NCCNc1c3c(nc4ccccc14)CCCC3)O2 (stereo not given) | > 100 | 6.97 | 0.06 | Papp at 18 h, 100 µM [10]: 44 nm/s
COc1ccc2nc3c(c(NCCCCCCCCNC(=O)C4(C)CCc5c(C)c(O)c(C)c(C)c5O4)c2c1)CCCC3 (stereo not given) | > 100 | 3.48 | 1.53 | IC50 at 24 h (in vitro): 0.92 µM
Cc1c(C)c2c(c(C)c1O)CCC(C)(C(=O)NCCCCCCNc1c3c(nc4cc(Cl)ccc14)CCCC3)O2 (stereo not given) | 48.8 | 0.1 | 0.4 | IC50 at 24 h (in vitro): 0.7 µM
COc1ccc2nc3c(c(NCCNC(=O)C4(C)CCc5c(C)c(O)c(C)c(C)c5O4)c2c1)CCCC3 (stereo not given) | 95.9 | 4.36 | 1.3 | IC50 at 24 h (in vitro): 4.9 µM
CC1=C(C)C(=O)C(CCC(C)(O)C(=O)NCCCCCCCCNc2c3c(nc4cc(Cl)ccc24)CCCC3)=C(C)C1=O (stereo not given) |  |  |  | Retention_time (Liver microsome [8]): 7.35 min
Cc1c(C)c2c(c(C)c1O)CCC(C)(C(=O)NCCCCCNc1c3c(nc4ccccc14)CCCC3)O2 (stereo not given) | 65.6 | 0.62 | 0.56 | IC50 at 24 h (in vitro): 8.7 µM
Cc1c(C)c2c(c(C)c1O)CCC(C)(C(=O)NCCCCCCCNc1c3c(nc4cc(Cl)ccc14)CCCC3)O2 (stereo not given) | 44.2 | 0.08 | 0.7 | Activity (HepG2 [6]): Non-toxic
OCCCCCCCCNc1c2c(nc3cc(Cl)ccc13)CCCC2 |  |  |  | Retention_time (Liver microsome [8]): 6.56 min
COc1ccc2nc3c(c(NCCCCCNC(=O)C4(C)CCc5c(C)c(O)c(C)c(C)c5O4)c2c1)CCCC3 (stereo not given) | 62.7 | 13.3 | 0.4 | 
CC1=C(C)C(=O)C(CCC(C)(O)C(=O)NC(O)CCCCCCCNc2c3c(nc4cc(Cl)ccc24)CCCC3)=C(C)C1=O (stereo not given) |  |  |  | Retention_time (Liver microsome [8]): 7.1 min
Cc1c(C)c2c(c(C)c1O)CCC(C)(C(=O)O)O2 (stereo not given) [TROLOX] | 16.2 | 186 | > 1000 | Activity (HepG2 [13]): Non-toxic
